Reference: ChEMBL document CHEMBL1201862, “PubChem BioAssay data set” (2004)
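Exposure lasted 48 hours, with cells grown in 96-well plates and compounds tested at five concentrations. At the GI50, growth is halved.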 Active and inactive are the calls of the source. Rule as the data show it: active = GI50 up to about 1.1 µM and inactive = higher.

Assays:
Assay in all cases: NCI tumour cell line growth inhibition, 48 h
MOLT-4 = test system: MOLT-4
U-251 = test system: U-251
SK-MEL-28 = test system: SK-MEL-28
Malme-3M = test system: Malme-3M
MCF7 = test system: MCF7
OVCAR-5 = test system: OVCAR-5
A549 = test system: A549
SF-539 = test system: SF-539
EKVX = test system: EKVX
A498 = test system: A498
SK-OV-3 = test system: SK-OV-3
CAKI-1 = test system: CAKI-1
MDA-MB-435 = test system: MDA-MB-435
NCI-H522 = test system: NCI-H522
M14 = test system: M14
MDA-N = test system: MDA-N
HCT-116 = test system: HCT-116
SNB-19 = test system: SNB-19
RPMI-8226 = test system: RPMI-8226
NCI-H460 = test system: NCI-H460

Question: What does the source list for `O=C1NC(N2CCOCC2)=N/C1=C\c1ccccc1O`?
Answer: GI50 (MOLT-4): > 100 µM (inactive); GI50 (U-251): > 100 µM (inactive); GI50 (SK-MEL-28): > 100 µM (inactive); GI50 (Malme-3M): > 100 µM (inactive); GI50 (MCF7): > 100 µM (inactive); GI50 (OVCAR-5): > 100 µM (inactive); GI50 (A549): > 100 µM (inactive); GI50 (SF-539): > 100 µM (inactive); GI50 (EKVX): > 100 µM (inactive); GI50 (A498): > 100 µM (inactive); GI50 (SK-OV-3): > 100 µM (inactive); GI50 (CAKI-1): > 100 µM (inactive); GI50 (MDA-MB-435): > 100 µM (inactive); GI50 (NCI-H522): > 100 µM (inactive); GI50 (M14): > 100 µM (inactive); GI50 (MDA-N): > 100 µM (inactive); GI50 (HCT-116): > 100 µM (inactive); GI50 (SNB-19): > 100 µM (inactive); GI50 (RPMI-8226): > 100 µM (inactive)

Question: With `O=C(Cn1cc(F)c(=O)[nH]c1=O)C12CC3CC(CC(C3)C1)C2` as the compound, how does the GI50 (NCI-H460) read?
Answer: > 100 µM (inactive)

Question: And the GI50 (MOLT-4)?
Answer: > 100 µM (inactive)

Question: What about the GI50 (U-251) of the same compound?
Answer: > 100 µM (inactive)

Question: And the GI50 (SK-MEL-28)?
Answer: > 100 µM (inactive)

Question: And the GI50 (Malme-3M)?
Answer: > 100 µM (inactive)

Question: And the GI50 (MCF7)?
Answer: > 100 µM (inactive)

Question: What about the GI50 (OVCAR-5) of the same compound?
Answer: > 100 µM (inactive)

Question: And the GI50 (A549)?
Answer: > 100 µM (inactive)

Question: And the GI50 (SF-539)?
Answer: > 100 µM (inactive)

Question: What about the GI50 (EKVX) of the same compound?
Answer: > 100 µM (inactive)

Question: What about the GI50 (A498) of the same compound?
Answer: > 100 µM (inactive)

Question: What about the GI50 (SK-OV-3) of the same compound?
Answer: > 100 µM (inactive)

Question: What about the GI50 (CAKI-1) of the same compound?
Answer: > 100 µM (inactive)

Question: And the GI50 (MDA-MB-435)?
Answer: > 100 µM (inactive)

Question: And the GI50 (NCI-H522)?
Answer: > 100 µM (inactive)

Question: And the GI50 (M14)?
Answer: > 100 µM (inactive)

Question: And the GI50 (MDA-N)?
Answer: > 100 µM (inactive)

Question: What about the GI50 (HCT-116) of the same compound?
Answer: > 100 µM (inactive)

Question: And the GI50 (SNB-19)?
Answer: > 100 µM (inactive)

Question: What about the GI50 (RPMI-8226) of the same compound?
Answer: > 100 µM (inactive)

Question: For `C=C(Cl)C(Cl)(CBr)CCC(Cl)C(C)C` (stereo not given), which GI50 (NCI-H460) is on record?
Answer: 1.98 µM (inactive)

Question: What about the GI50 (MOLT-4) of the same compound?
Answer: > 39.9 µM (inactive)

Question: And the GI50 (U-251)?
Answer: 0.647 µM (active)

Question: What about the GI50 (SK-MEL-28) of the same compound?
Answer: 1.87 µM (inactive)

Question: And the GI50 (Malme-3M)?
Answer: 8.28 µM (inactive)

Question: And the GI50 (MCF7)?
Answer: 1.12 µM (active)

Question: What about the GI50 (OVCAR-5) of the same compound?
Answer: 10.8 µM (inactive)

Question: And the GI50 (A549)?
Answer: 8.53 µM (inactive)

Question: What about the GI50 (SF-539) of the same compound?
Answer: 1.3 µM (inactive)

Question: What about the GI50 (EKVX) of the same compound?
Answer: 14.7 µM (inactive)

Question: And the GI50 (A498)?
Answer: 5.21 µM (inactive)

Question: And the GI50 (SK-OV-3)?
Answer: 26.4 µM (inactive)

Question: What about the GI50 (CAKI-1) of the same compound?
Answer: 1.77 µM (inactive)

Question: What about the GI50 (MDA-MB-435) of the same compound?
Answer: 6.98 µM (inactive)

Question: What about the GI50 (NCI-H522) of the same compound?
Answer: 5.93 µM (inactive)

Question: And the GI50 (M14)?
Answer: 22.2 µM (inactive)

Question: And the GI50 (MDA-N)?
Answer: 3.72 µM (inactive)

Question: What about the GI50 (HCT-116) of the same compound?
Answer: 1.37 µM (inactive)

Question: And the GI50 (SNB-19)?
Answer: 4.04 µM (inactive)

Question: And the GI50 (RPMI-8226)?
Answer: 0.138 µM (active)

Question: Which results are given for `CS(=O)(=O)OCCN(CCOS(C)(=O)=O)c1ccc(/C=N/c2ccc(-c3csc(COc4ccccc4)n3)cc2)cc1`?
Answer: GI50 (NCI-H460): 0.0708 µM (active); GI50 (MOLT-4): 0.271 µM (active); GI50 (U-251): 7.24 µM (inactive); GI50 (SK-MEL-28): 12.7 µM (inactive); GI50 (Malme-3M): 12.8 µM (inactive); GI50 (MCF7): 5.42 µM (inactive); GI50 (OVCAR-5): 3.73 µM (inactive); GI50 (A549): 3.21 µM (inactive); GI50 (SF-539): 2.86 µM (inactive); GI50 (EKVX): 5.5 µM (inactive); GI50 (A498): 2.6 µM (inactive); GI50 (SK-OV-3): 1.69 µM (inactive); GI50 (CAKI-1): 0.853 µM (active); GI50 (MDA-MB-435): 12.4 µM (inactive); GI50 (NCI-H522): 0.295 µM (active); GI50 (M14): 5.6 µM (inactive); GI50 (MDA-N): 11 µM (inactive); GI50 (HCT-116): 12.6 µM (inactive); GI50 (SNB-19): 9.16 µM (inactive); GI50 (RPMI-8226): 4.47 µM (inactive)

Question: Which results are given for `COc1ccc2nc(-c3ccc(O)cc3)sc2c1`?
Answer: GI50 (NCI-H460): 39.3 µM (inactive); GI50 (MOLT-4): 27.9 µM (inactive); GI50 (U-251): 19.6 µM (inactive); GI50 (Malme-3M): 23.5 µM (inactive); GI50 (MCF7): 34.7 µM (inactive); GI50 (OVCAR-5): 17.7 µM (inactive); GI50 (A549): 36.6 µM (inactive); GI50 (SF-539): 21.4 µM (inactive); GI50 (EKVX): 18.1 µM (inactive); GI50 (A498): 30.3 µM (inactive); GI50 (SK-OV-3): 32.5 µM (inactive); GI50 (CAKI-1): 29.3 µM (inactive); GI50 (MDA-MB-435): 25.2 µM (inactive); GI50 (NCI-H522): 16.8 µM (inactive); GI50 (M14): 22.7 µM (inactive); GI50 (MDA-N): 22.5 µM (inactive); GI50 (HCT-116): 17.5 µM (inactive); GI50 (SNB-19): 34.7 µM (inactive); GI50 (RPMI-8226): < 0.01 µM (active)

Question: Which GI50 (NCI-H460) does the source give for `CC[C@]1(Cc2ccc(OC)c(OC)c2)C=[N+]([O-])O[C@H](OCc2ccccc2)[C@@H]1OC(C)=O` here?
Answer: 31 µM (inactive)

Question: And the GI50 (MOLT-4)?
Answer: 6.34 µM (inactive)

Question: What about the GI50 (U-251) of the same compound?
Answer: 32.3 µM (inactive)

Question: And the GI50 (SK-MEL-28)?
Answer: 25.8 µM (inactive)

Question: And the GI50 (Malme-3M)?
Answer: 20.7 µM (inactive)

Question: What about the GI50 (MCF7) of the same compound?
Answer: 29.7 µM (inactive)

Question: And the GI50 (OVCAR-5)?
Answer: 59.7 µM (inactive)

Question: And the GI50 (A549)?
Answer: 36.2 µM (inactive)

Question: And the GI50 (EKVX)?
Answer: 16.5 µM (inactive)

Question: And the GI50 (A498)?
Answer: 32.7 µM (inactive)

Question: And the GI50 (SK-OV-3)?
Answer: 48.9 µM (inactive)

Question: What about the GI50 (CAKI-1) of the same compound?
Answer: 24.8 µM (inactive)

Question: What about the GI50 (MDA-MB-435) of the same compound?
Answer: 38.4 µM (inactive)

Question: What about the GI50 (NCI-H522) of the same compound?
Answer: 12.4 µM (inactive)

Question: And the GI50 (M14)?
Answer: 33.5 µM (inactive)

Question: And the GI50 (MDA-N)?
Answer: 36.1 µM (inactive)

Question: And the GI50 (SNB-19)?
Answer: 58.3 µM (inactive)

Question: And the GI50 (RPMI-8226)?
Answer: 18.2 µM (inactive)

Question: What does the source list for `CC1=CC(=O)N(n2c(C)n[nH]c2=O)C1=O`?
Answer: GI50 (NCI-H460): > 100 µM (inactive); GI50 (MOLT-4): > 100 µM (inactive); GI50 (U-251): > 100 µM (inactive); GI50 (Malme-3M): > 100 µM (inactive); GI50 (MCF7): > 100 µM (inactive); GI50 (OVCAR-5): > 100 µM (inactive); GI50 (A549): > 100 µM (inactive); GI50 (SF-539): > 100 µM (inactive); GI50 (EKVX): > 100 µM (inactive); GI50 (A498): > 100 µM (inactive); GI50 (SK-OV-3): > 100 µM (inactive); GI50 (CAKI-1): > 100 µM (inactive); GI50 (MDA-MB-435): > 100 µM (inactive); GI50 (NCI-H522): > 100 µM (inactive); GI50 (M14): > 100 µM (inactive); GI50 (MDA-N): > 100 µM (inactive); GI50 (HCT-116): > 100 µM (inactive); GI50 (SNB-19): > 100 µM (inactive); GI50 (RPMI-8226): > 100 µM (inactive)
